Experimental data as given in ChEMBL document CHEMBL4507257, “Data for DCP probe ABT-100” (2021).
Activity calls are given as the source filed them. The calls are words filed in the database; no cut-off is given here.

Key:
[1] = target: Sigma non-opioid intracellular receptor 1 (Homo sapiens, UniProt Q99720); experiment: GPCRScan assay: inhibition of Sigma 1; set-up: radioligand conc. used [nm] 4.0 – 5.0, parental cells HEKT
[2] = target: Protein farnesyltransferase (Bos taurus, UniProt P29702+P49355); experiment: Scintillation proximity assay (SPA); assay type: protein-complex assay
[3] = target: Peripheral plasma membrane protein CASK (Homo sapiens) (UniProt O14936); conditions: Compound concentration 1000.0 nM
[4] = target: Casein kinase I isoform alpha (Homo sapiens) (UniProt P48729); conditions: Compound concentration 1000.0 nM
[5] = target: Serine/threonine-protein kinase DCLK1 (Homo sapiens) (UniProt O15075); conditions: Compound concentration 1000.0 nM
Chain of Serine/threonine-protein kinase DCLK1 (Homo sapiens) (O15075 whole entry): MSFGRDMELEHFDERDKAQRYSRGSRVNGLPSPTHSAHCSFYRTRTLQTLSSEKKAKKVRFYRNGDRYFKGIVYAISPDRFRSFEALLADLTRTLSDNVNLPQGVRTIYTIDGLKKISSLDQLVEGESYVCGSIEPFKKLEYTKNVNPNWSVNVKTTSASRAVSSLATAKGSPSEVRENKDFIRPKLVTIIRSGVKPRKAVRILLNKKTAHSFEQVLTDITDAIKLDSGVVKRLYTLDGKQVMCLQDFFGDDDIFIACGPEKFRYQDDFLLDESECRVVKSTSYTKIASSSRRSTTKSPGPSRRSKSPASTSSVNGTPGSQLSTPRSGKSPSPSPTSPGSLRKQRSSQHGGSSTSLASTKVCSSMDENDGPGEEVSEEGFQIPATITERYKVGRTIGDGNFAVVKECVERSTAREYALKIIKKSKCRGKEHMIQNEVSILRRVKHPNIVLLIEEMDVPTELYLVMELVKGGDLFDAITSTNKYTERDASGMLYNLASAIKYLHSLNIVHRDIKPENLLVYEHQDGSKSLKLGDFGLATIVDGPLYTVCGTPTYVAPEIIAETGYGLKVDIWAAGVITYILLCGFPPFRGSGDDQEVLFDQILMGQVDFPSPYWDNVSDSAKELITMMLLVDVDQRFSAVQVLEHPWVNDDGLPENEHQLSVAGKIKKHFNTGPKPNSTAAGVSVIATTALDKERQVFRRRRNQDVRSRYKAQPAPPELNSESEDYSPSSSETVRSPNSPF

[6] = system: Receptor-type tyrosine-protein kinase FLT3 (Homo sapiens), P36888 [UNDEFINED MUTATION]; conditions: Compound concentration 1000.0 nM
Chain of Receptor-type tyrosine-protein kinase FLT3 (Homo sapiens), P36888 [UNDEFINED MUTATION] (P36888 whole entry, looked up, change not shown): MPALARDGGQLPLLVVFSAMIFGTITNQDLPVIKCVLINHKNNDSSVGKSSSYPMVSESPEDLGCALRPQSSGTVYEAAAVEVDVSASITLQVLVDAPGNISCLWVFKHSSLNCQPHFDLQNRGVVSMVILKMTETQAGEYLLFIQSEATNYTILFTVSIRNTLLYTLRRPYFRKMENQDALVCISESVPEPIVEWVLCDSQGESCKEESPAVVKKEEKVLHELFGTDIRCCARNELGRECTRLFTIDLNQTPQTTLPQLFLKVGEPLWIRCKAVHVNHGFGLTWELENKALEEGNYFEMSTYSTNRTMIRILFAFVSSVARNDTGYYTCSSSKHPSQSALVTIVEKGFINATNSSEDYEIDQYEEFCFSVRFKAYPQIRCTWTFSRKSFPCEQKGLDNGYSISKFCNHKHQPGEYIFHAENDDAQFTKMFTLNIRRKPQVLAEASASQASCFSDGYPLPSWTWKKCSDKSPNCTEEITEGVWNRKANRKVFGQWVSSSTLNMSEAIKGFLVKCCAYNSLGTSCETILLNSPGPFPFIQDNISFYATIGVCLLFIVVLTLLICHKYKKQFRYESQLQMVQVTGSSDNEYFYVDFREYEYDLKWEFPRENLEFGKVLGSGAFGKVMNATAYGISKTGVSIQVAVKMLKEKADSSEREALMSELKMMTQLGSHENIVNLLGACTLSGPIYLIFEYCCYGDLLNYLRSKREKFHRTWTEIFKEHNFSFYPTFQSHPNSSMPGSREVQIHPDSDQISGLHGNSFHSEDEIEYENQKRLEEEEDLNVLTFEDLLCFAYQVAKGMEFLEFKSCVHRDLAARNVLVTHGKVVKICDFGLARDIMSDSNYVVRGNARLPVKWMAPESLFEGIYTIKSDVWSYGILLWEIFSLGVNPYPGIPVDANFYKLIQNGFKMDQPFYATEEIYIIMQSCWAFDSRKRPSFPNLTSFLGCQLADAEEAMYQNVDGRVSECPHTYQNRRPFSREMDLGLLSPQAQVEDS

[7] = target: Tyrosine-protein kinase FRK (Homo sapiens) (UniProt P42685); conditions: Compound concentration 1000.0 nM
[8] = target: Homeodomain-interacting protein kinase 3 (Homo sapiens) (UniProt Q9H422); conditions: Compound concentration 1000.0 nM
[9] = target: Mast/stem cell growth factor receptor Kit (Homo sapiens) (UniProt P10721); conditions: Compound concentration 1000.0 nM
[10] = system: Mast/stem cell growth factor receptor Kit (Homo sapiens), P10721 [A829P]; conditions: Compound concentration 1000.0 nM
[11] = target: MAP kinase-activated protein kinase 5 (Homo sapiens) (UniProt Q8IW41); conditions: Compound concentration 1000.0 nM
[12] = target: Myosin light chain kinase (Homo sapiens) (UniProt Q32MK0); conditions: Compound concentration 1000.0 nM
[13] = target: Mitogen-activated protein kinase kinase kinase 14 (Homo sapiens) (UniProt Q99558); conditions: Compound concentration 1000.0 nM
Chain of Mitogen-activated protein kinase kinase kinase 14 (Homo sapiens) (Q99558 whole entry, looked up): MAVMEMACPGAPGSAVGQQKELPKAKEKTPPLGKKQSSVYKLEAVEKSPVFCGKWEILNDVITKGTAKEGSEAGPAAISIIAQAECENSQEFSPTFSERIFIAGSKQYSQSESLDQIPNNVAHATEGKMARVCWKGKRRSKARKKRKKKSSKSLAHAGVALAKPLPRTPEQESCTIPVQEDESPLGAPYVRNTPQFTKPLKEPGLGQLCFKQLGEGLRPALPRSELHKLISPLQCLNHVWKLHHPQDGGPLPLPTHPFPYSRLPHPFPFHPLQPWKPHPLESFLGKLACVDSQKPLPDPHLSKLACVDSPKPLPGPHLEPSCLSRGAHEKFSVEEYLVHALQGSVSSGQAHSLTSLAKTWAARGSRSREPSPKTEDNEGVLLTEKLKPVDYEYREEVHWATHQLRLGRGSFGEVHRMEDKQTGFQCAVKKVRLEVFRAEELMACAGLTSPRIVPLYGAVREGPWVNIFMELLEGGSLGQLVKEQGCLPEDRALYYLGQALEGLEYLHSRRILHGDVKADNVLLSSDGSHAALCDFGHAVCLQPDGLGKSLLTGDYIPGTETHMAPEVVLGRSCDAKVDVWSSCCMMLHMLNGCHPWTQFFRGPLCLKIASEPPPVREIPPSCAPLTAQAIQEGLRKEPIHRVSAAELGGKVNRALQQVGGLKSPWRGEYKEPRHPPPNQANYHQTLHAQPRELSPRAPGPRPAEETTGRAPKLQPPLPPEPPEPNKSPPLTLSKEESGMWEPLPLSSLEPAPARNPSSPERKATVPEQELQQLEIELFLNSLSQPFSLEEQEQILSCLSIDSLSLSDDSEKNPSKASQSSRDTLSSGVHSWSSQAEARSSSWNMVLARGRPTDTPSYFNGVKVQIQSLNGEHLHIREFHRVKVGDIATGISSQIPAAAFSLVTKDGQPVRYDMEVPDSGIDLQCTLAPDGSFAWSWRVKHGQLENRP

[14] = target: Calcium-dependent protein kinase 1 (Plasmodium falciparum) (UniProt P62344); conditions: Compound concentration 1000.0 nM
[15] = target: Cyclin-dependent kinase 15 (Homo sapiens) (UniProt Q96Q40); conditions: Compound concentration 1000.0 nM
[16] = target: Phosphatidylinositol 3-kinase C2 domain-containing subunit gamma (Homo sapiens) (UniProt O75747); conditions: Compound concentration 1000.0 nM
Chain of Phosphatidylinositol 3-kinase C2 domain-containing subunit gamma (Homo sapiens) (O75747 whole entry, the tested form may be a part): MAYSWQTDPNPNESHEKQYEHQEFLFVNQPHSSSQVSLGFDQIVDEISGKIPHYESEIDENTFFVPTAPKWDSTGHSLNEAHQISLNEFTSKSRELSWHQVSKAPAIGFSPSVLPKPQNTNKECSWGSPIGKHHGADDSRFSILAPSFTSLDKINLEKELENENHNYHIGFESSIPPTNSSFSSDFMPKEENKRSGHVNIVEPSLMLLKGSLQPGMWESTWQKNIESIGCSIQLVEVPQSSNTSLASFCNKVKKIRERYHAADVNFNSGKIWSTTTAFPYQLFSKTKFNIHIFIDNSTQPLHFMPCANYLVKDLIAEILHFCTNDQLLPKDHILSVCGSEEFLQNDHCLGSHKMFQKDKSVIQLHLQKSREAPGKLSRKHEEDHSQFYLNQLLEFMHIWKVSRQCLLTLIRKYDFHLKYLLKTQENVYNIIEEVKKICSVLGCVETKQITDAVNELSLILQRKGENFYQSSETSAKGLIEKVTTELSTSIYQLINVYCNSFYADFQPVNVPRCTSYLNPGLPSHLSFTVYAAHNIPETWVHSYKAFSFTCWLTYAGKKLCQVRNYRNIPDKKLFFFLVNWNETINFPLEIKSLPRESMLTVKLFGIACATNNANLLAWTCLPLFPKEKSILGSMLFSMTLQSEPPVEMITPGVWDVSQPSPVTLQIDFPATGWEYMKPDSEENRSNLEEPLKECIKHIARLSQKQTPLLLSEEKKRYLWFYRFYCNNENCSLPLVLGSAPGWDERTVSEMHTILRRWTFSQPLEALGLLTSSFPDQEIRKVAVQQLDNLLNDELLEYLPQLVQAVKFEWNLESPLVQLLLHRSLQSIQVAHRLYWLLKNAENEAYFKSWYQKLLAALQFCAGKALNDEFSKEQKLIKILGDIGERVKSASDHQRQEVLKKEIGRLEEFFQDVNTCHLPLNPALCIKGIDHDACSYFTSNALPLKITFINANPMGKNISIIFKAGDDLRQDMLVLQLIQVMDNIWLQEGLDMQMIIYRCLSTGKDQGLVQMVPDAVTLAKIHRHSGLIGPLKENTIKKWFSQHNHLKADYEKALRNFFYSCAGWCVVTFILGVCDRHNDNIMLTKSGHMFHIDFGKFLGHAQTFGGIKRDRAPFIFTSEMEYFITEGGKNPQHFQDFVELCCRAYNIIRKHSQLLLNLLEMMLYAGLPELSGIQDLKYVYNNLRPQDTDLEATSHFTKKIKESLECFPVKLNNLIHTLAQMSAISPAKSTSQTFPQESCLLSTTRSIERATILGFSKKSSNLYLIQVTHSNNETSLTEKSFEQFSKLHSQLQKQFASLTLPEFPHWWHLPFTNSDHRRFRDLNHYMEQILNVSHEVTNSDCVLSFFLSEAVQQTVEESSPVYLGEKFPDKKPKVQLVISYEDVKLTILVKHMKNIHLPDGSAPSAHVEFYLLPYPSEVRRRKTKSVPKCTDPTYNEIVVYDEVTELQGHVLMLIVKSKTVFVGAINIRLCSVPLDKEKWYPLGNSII

[17] = target: cAMP-dependent protein kinase catalytic subunit alpha (Homo sapiens) (UniProt P17612); conditions: Compound concentration 1000.0 nM
[18] = target: Dual specificity testis-specific protein kinase 1 (Homo sapiens) (UniProt Q15569); conditions: Compound concentration 1000.0 nM
Chain of Dual specificity testis-specific protein kinase 1 (Homo sapiens) (Q15569 whole entry, looked up): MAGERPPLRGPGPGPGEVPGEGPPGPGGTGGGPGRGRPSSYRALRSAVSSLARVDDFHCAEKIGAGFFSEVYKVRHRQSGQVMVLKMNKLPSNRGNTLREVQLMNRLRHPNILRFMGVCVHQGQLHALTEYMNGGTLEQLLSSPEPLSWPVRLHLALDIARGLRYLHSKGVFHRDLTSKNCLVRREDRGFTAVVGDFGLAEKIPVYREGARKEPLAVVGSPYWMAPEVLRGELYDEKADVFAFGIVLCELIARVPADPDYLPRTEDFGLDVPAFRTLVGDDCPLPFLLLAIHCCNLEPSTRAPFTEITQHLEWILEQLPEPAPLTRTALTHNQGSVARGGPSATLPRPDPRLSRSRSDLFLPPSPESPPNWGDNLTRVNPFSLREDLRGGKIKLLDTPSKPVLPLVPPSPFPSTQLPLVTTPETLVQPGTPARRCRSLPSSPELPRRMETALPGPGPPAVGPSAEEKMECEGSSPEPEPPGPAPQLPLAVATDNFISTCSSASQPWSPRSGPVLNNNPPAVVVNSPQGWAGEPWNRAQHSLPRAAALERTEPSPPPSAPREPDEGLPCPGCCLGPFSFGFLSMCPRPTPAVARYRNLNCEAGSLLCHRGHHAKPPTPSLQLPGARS

[19] = target: 5-hydroxytryptamine receptor 1E (Homo sapiens) (UniProt P28566); conditions: Compound concentration 10.0 uM
[20] = target: 5-hydroxytryptamine receptor 6 (Homo sapiens) (UniProt P50406); conditions: Compound concentration 10.0 uM
[21] = Immunoblot method to monitor prenylation inhibition of Ras; set-up: species or system Homo sapiens
[22] = target: Adenosine receptor A1 (Homo sapiens) (UniProt P30542); experiment: A1 (h) Ligand binding assay; conditions: Compound concentration 10.0 uM
[23] = target: Type-2 angiotensin II receptor (Homo sapiens) (UniProt P50052); experiment: AT2 (h) Ligand binding assay; conditions: Compound concentration 10.0 uM
[24] = target: Translocator protein (Rattus norvegicus) (UniProt P16257); experiment: BZD (peripheral) Ligand binding assay; conditions: Compound concentration 10.0 uM
[25] = target: Gastrin/cholecystokinin type B receptor (Homo sapiens) (UniProt P32239); experiment: CCKB (h) Ligand binding assay; conditions: Compound concentration 10.0 uM
[26] = target: D(3) dopamine receptor (Homo sapiens) (UniProt P35462); experiment: D3 (h) Ligand binding assay; conditions: Compound concentration 10.0 uM
[27] = target: C-X-C chemokine receptor type 1 (Homo sapiens) (UniProt P25024); experiment: IL-8A (h) (CXCR1) Ligand binding assay; conditions: Compound concentration 10.0 uM
[28] = target: Prostacyclin receptor (Homo sapiens) (UniProt P43119); experiment: PGI2 (h) Ligand binding assay; conditions: Compound concentration 10.0 uM
[29] = target: T1, 5-hydroxytryptamine receptor 1A (Homo sapiens) (UniProt P08908); experiment: 5-HT1A (h) Ligand binding assay; conditions: Compound concentration 10.0 uM
T1 sequence (whole entry): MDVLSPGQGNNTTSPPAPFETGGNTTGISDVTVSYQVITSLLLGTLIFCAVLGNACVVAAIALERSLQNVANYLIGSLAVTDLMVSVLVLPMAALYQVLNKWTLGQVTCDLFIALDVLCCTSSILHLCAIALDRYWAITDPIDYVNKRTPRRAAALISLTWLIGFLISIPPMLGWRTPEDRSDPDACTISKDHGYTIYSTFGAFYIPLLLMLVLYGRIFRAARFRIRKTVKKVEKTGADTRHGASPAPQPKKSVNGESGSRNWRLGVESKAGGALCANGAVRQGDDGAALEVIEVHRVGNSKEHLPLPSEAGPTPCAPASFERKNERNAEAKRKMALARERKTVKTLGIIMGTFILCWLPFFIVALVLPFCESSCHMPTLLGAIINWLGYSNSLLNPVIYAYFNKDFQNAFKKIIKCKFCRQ

[30] = target: 5-hydroxytryptamine receptor 1B (Homo sapiens) (UniProt P28222); experiment: 5-HT1B Ligand binding assay; conditions: Compound concentration 10.0 uM
[31] = target: 5-hydroxytryptamine receptor 2A (Homo sapiens) (UniProt P28223); experiment: 5-HT2A (h) Ligand binding assay; conditions: Compound concentration 10.0 uM
[32] = target: T2, 5-hydroxytryptamine receptor 3A (Homo sapiens) (UniProt P46098); experiment: 5-HT3 (h) Ligand binding assay; conditions: Compound concentration 10.0 uM
T2 sequence (whole entry): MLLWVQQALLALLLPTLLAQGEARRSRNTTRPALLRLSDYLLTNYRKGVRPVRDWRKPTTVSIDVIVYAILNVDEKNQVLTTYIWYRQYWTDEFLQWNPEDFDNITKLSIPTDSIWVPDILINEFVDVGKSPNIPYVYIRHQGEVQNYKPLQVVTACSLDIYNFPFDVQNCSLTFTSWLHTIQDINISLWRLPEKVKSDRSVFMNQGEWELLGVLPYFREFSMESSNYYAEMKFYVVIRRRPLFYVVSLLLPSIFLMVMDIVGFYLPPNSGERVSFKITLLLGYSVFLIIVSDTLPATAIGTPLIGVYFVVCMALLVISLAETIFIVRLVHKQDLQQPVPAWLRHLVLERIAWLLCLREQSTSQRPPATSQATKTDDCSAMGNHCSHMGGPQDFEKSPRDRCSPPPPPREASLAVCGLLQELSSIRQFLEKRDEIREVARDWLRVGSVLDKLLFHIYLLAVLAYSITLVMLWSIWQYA

[33] = target: 5-hydroxytryptamine receptor 7 (Homo sapiens) (UniProt P34969); experiment: 5-HT7 (h) Ligand binding assay; conditions: Compound concentration 10.0 uM
[34] = target: Vasoactive intestinal polypeptide receptor 1 (Homo sapiens) (UniProt P32241); experiment: VIP1 (h) Ligand binding assay
[35] = target: Melatonin receptor type 1A (Homo sapiens) (UniProt P48039); experiment: ML1 Ligand binding assay; conditions: Compound concentration 10.0 uM

Chain of Sigma non-opioid intracellular receptor 1 (Q99720 whole entry): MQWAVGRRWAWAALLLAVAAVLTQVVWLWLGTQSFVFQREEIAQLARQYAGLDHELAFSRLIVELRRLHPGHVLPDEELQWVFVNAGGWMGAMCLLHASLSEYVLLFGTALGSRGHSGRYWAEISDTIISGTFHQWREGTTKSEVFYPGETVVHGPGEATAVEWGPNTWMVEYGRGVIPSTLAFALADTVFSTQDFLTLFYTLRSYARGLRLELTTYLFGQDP

## Cn1cncc1[C@@](O)(COc1ccc(C#N)cc1-c1ccc(OC(F)(F)F)cc1)c1ccc(C#N)cc1 [A-108]
[1]
  Ki: 91.6 nM
[2]
  IC50: > 100 nM (not active)
[3]
  residual activity: 92%
[4]
  residual activity: 78%
[5]
  residual activity: 87%
[6]
  residual activity: 89%
[7]
  residual activity: 100%
[8]
  residual activity: 97%
[9]
  residual activity: 98%
[10]
  residual activity: 100%
[11]
  residual activity: 100%
[12]
  residual activity: 96%
[13]
  residual activity: 92%
[14]
  residual activity: 75%
[15]
  residual activity: 100%
[16]
  residual activity: 61%
[17]
  residual activity: 94%
[18]
  residual activity: 92%
[19]
  inhibition: 7.11%
[20]
  inhibition: 14.2%

## Cn1cncc1[C@](O)(COc1ccc(C#N)cc1-c1ccc(OC(F)(F)F)cc1)c1ccc(C#N)cc1 [ABT-100]
[21]
  EC50: 0.73 nM (active)
[22]
  inhibition: < 10%
[23]
  inhibition: < 10%
[24]
  inhibition: 36%
[25]
  inhibition: < 10%
[26]
  inhibition: 36%
[27]
  inhibition: < 10%
[28]
  inhibition: < 10%
[29]
  inhibition: 18%
[30]
  inhibition: < 10%
[31]
  inhibition: 15%
[32]
  inhibition: 12%
[33]
  inhibition: 22%
[34]; Compound concentration 0.3 uM
  inhibition: 23%
[34]; Compound concentration 10.0 uM
  inhibition: 60%
[3]
  residual activity: 83%
[4]
  residual activity: 100%
[5]
  residual activity: 94%
[6]
  residual activity: 100%
[7]
  residual activity: 100%
[8]
  residual activity: 100%
[9]
  residual activity: 100%
[10]
  residual activity: 79%
[11]
  residual activity: 90%
[12]
  residual activity: 100%
[13]
  residual activity: 88%
[14]
  residual activity: 88%
[15]
  residual activity: 59%
[16]
  residual activity: 81%
[17]
  residual activity: 81%
[18]
  residual activity: 100%
[19]
  inhibition: 1.11%
[20]
  inhibition: 6.74%
[35]
  inhibition: 50%
